Measured values as given in US20240374744A1, “PROTEIN AND PHARMACEUTICAL COMPOSITION COMPRISING SAME FOR PREVENTION OR TREATMENT OF CANCER” (CELLEMEDY CO., LTD, priority 2021, published 2024).

Experiments:
Format in all cases: cell-based
Normal lung cells IMR-90 = test: CCK (cell counting kit) cytotoxicity assay, IMR-90; details: IMR-90 cell; anticancer drug alone vs protein nanoparticle conjugate, from IC50
Description: (§1) Normal lung cells WI-38 and IMR-90, and normal colon cells CCD-18co were grown in 96-well microplate with 1×10^4 cells/well for 36 hours, and the cytotoxicity when only anticancer drug was added and the cytotoxicity when protein nanoparticle-anticancer drug conjugate was added were compared.

Normal lung cells WI-38 = test: CCK (cell counting kit) cytotoxicity assay, WI-38; details: WI-38 cell; anticancer drug alone vs protein nanoparticle conjugate, from IC50
Description: as §1

[1] = system: normal colon cells CCD-18co; test: CCK (cell counting kit) cytotoxicity assay, CCD-18co; details: CCD-18co cell; anticancer drug alone vs protein nanoparticle conjugate, from IC50
Description: as §1

COc1cccc2c1C(=O)c1c(O)c3c(c(O)c1C2=O)C[C@@](O)(C(=O)CO)C[C@@H]3O[C@H]1C[C@H](N)[C@H](O)[C@H](C)O1 [DOX, doxorubicin]
drug toxicity reduction (DTR) (Normal lung cells IMR-90): 316
drug toxicity reduction (DTR) (Normal lung cells WI-38): 263
drug toxicity reduction (DTR) [1]: 91

Nc1ccn([C@@H]2O[C@H](CO)[C@@H](O)C2(F)F)c(=O)n1 [GEM, gemcitabine]
drug toxicity reduction (DTR) (Normal lung cells IMR-90): 7244
drug toxicity reduction (DTR) (Normal lung cells WI-38): 3162
drug toxicity reduction (DTR) [1]: 8913
